Measured values from ChEMBL document CHEMBL3822455, “Aryl or heteroaryl substituted aminal derivatives of HCV NS5A inhibitor MK-8742” (Bioorg Med Chem Lett, 2016).

Assays:
Assay type in all cases: functional, organism-based, Hepacivirus hominis
Hepatitis C virus [1] = test: Antiviral activity against HCV genotype 2b assessed as replicon RNA level measured after 3 days by real-time PCR method; details: 72 h
Hepatitis C virus [2] = test: Antiviral activity against HCV genotype 4a assessed as replicon RNA level measured after 3 days by real-time PCR method; details: 72 h
Hepatitis C virus [3] = test: Antiviral activity against HCV genotype 1a harboring NS5A Y93H mutant assessed as replicon RNA level measured after 3 days by real-time PCR method; details: subtype 1a, 72 h
Hepatitis C virus [4] = test: Antiviral activity against HCV genotype 1a assessed as replicon RNA level measured after 3 days by real-time PCR method; details: subtype 1a, 72 h
Hepatitis C virus [5] = test: Antiviral activity against HCV genotype 3a assessed as replicon RNA level measured after 3 days by real-time PCR method; details: 72 h
Hepatitis C virus [6] = test: Antiviral activity against HCV genotype 1a harboring NS5A L31V mutant assessed as replicon RNA level measured after 3 days by real-time PCR method; details: subtype 1a, 72 h
Hepatitis C virus [7] = test: Antiviral activity against HCV genotype 1b assessed as replicon RNA level measured after 3 days by real-time PCR method; details: 72 h
Hepatitis C virus [8] = test: Antiviral activity against HCV genotype 2a assessed as replicon RNA level measured after 3 days by real-time PCR method; details: 72 h

Row | Structure (SMILES) | EC50 (Hepatitis C virus [1]) [nM] | EC50 (Hepatitis C virus [2]) [nM] | EC50 (Hepatitis C virus [3]) [nM] | EC50 (Hepatitis C virus [4]) [nM] | EC50 (Hepatitis C virus [5]) [nM] | EC50 (Hepatitis C virus [6]) [nM] | EC50 (Hepatitis C virus [7]) [nM] | EC50 (Hepatitis C virus [8]) [nM]
1 | COC(=O)N[C@H](C(=O)N1CCC[C@H]1c1ncc(-c2ccc3c(c2)OC(c2cccc(-c4cccnc4)c2)n2c-3cc3cc(-c4cnc([C@@H]5CCCN5C(=O)[C@@H](NC(=O)OC)C(C)C)[nH]4)ccc32)[nH]1)C(C)C (mixture of isomers) | 8 | 0.003 | 26 | 0.006 | 0.08 | 0.2 | 0.008 | 0.004
2 | COC(=O)N[C@H](C(=O)N1CCC[C@H]1c1ncc(-c2ccc3c(c2)OC(c2cccc(-c4ccc(-c5ccccc5)cc4)c2)n2c-3cc3cc(-c4cnc([C@@H]5CCCN5C(=O)[C@@H](NC(=O)OC)C(C)C)[nH]4)ccc32)[nH]1)C(C)C (mixture of isomers) | 3 | 0.005 | 2 | 0.006 | 0.01 | 0.3 | 0.003 | 0.003
3 | COC(=O)N[C@H](C(=O)N1CCC[C@H]1c1ncc(-c2ccc3c(c2)OC(c2ccccc2)n2c-3cc3cc(-c4cnc([C@@H]5CCCN5C(=O)[C@@H](NC(=O)OC)C(C)C)[nH]4)ccc32)[nH]1)C(C)C (stereo not given in full) | 3 | 0.003 | 2 | 0.004 | 0.02 | 0.5 | 0.003 | 0.003
4 | COC(=O)N[C@H](C(=O)N1CCC[C@H]1c1ncc(-c2ccc3c(c2)OC(c2cccc(N4CCOCC4)c2)n2c-3cc3cc(-c4cnc([C@@H]5CCCN5C(=O)[C@@H](NC(=O)OC)C(C)C)[nH]4)ccc32)[nH]1)C(C)C (mixture of isomers) | 17 | 0.007 | 52 | 0.004 | 0.12 | 0.3 | 0.006 | 0.002
5 | COC(=O)N[C@H](C(=O)N1CCC[C@H]1c1ncc(-c2ccc3c(c2)OC(c2ccccc2Cl)n2c-3cc3cc(-c4cnc([C@@H]5CCCN5C(=O)[C@@H](NC(=O)OC)C(C)C)[nH]4)ccc32)[nH]1)C(C)C (stereo not given in full) |  | 0.3 | 139 | 0.01 | 2 | 2 | 0.004 | 0.04
6 | COC(=O)N[C@H](C(=O)N1CCC[C@H]1c1ncc(-c2ccc3c(c2)OC(c2cccc(-c4cn[nH]c4)c2)n2c-3cc3cc(-c4cnc([C@@H]5CCCN5C(=O)[C@@H](NC(=O)OC)C(C)C)[nH]4)ccc32)[nH]1)C(C)C (mixture of isomers) | 25 |  | 101 | 0.01 | 0.2 | 10 |  | 0.03
7 | COC(=O)N[C@H](C(=O)N1CCC[C@H]1c1ncc(-c2ccc3c(c2)OC(c2cccc(OC(C)C)c2)n2c-3cc3cc(-c4cnc([C@@H]5CCCN5C(=O)[C@@H](NC(=O)OC)C(C)C)[nH]4)ccc32)[nH]1)C(C)C (mixture of isomers) | 28 |  | 4.4 | 0.007 | 0.08 | 0.1 |  | 
8 | COC(=O)N[C@H](C(=O)N1CCC[C@H]1c1ncc(-c2ccc3c(c2)OC(c2cccc(OC4CCCCC4)c2)n2c-3cc3cc(-c4cnc([C@@H]5CCCN5C(=O)[C@@H](NC(=O)OC)C(C)C)[nH]4)ccc32)[nH]1)C(C)C (mixture of isomers) | 7 |  | 3 | 0.01 |  |  | 0.007 | 
9 | COC(=O)N[C@H](C(=O)N1CCC[C@H]1c1ncc(-c2ccc3c(c2)OC(c2ccc(F)c(F)c2)n2c-3cc3cc(-c4cnc([C@@H]5CCCN5C(=O)[C@@H](NC(=O)OC)C(C)C)[nH]4)ccc32)[nH]1)C(C)C (stereo not given in full) | 1 | 0.008 | 3 | 0.004 |  | 0.5 | 0.003 | 0.005
10 | COC(=O)N[C@H](C(=O)N1CCC[C@H]1c1ncc(-c2ccc3c(c2)OC(c2ccc(C(F)(F)F)cc2)n2c-3cc3cc(-c4cnc([C@@H]5CCCN5C(=O)[C@@H](NC(=O)OC)C(C)C)[nH]4)ccc32)[nH]1)C(C)C (mixture of isomers) |  | 0.04 | 46 | 0.016 | 0.27 |  | 0.009 | 0.027
11 | COC(=O)N[C@H](C(=O)N1CCC[C@H]1c1ncc(-c2ccc3c(c2)OC(c2cncnc2)n2c-3cc3cc(-c4cnc([C@@H]5CCCN5C(=O)[C@@H](NC(=O)OC)C(C)C)[nH]4)ccc32)[nH]1)C(C)C (mixture of isomers) | 10 |  | 12 | 0.004 | 0.2 | 10 |  | 0.02
12 | COC(=O)N[C@H](C(=O)N1CCC[C@H]1c1ncc(-c2ccc3c(c2)OC(c2cccc(OC4CCCC4)c2)n2c-3cc3cc(-c4cnc([C@@H]5CCCN5C(=O)[C@@H](NC(=O)OC)C(C)C)[nH]4)ccc32)[nH]1)C(C)C (mixture of isomers) | 6 |  | 4 | 0.01 | 0.03 | 0.2 | 0.006 | 
13 | COC(=O)N[C@H](C(=O)N1CCC[C@H]1c1ncc(-c2ccc3c(c2)OC(c2cccc(-c4ccncc4)c2)n2c-3cc3cc(-c4cnc([C@@H]5CCCN5C(=O)[C@@H](NC(=O)OC)C(C)C)[nH]4)ccc32)[nH]1)C(C)C (mixture of isomers) | 10 |  | 40 | 0.007 | 0.08 | 10 |  | 0.007
14 | COC(=O)N[C@H](C(=O)N1CCC[C@H]1c1ncc(-c2ccc3c(c2)OC(c2cccc(OCC(C)C)c2)n2c-3cc3cc(-c4cnc([C@@H]5CCCN5C(=O)[C@@H](NC(=O)OC)C(C)C)[nH]4)ccc32)[nH]1)C(C)C (mixture of isomers) | 12 |  | 0.9 | 0.01 | 0.02 | 0.2 | 0.004 | 
15 | COC(=O)N[C@H](C(=O)N1CCC[C@H]1c1ncc(-c2ccc3c(c2)OC(c2ccccn2)n2c-3cc3cc(-c4cnc([C@@H]5CCCN5C(=O)[C@@H](NC(=O)OC)C(C)C)[nH]4)ccc32)[nH]1)C(C)C (mixture of isomers) | 3 | 0.02 | 31 | 0.009 | 0.2 |  | 0.01 | 0.06
16 | COC(=O)N[C@H](C(=O)N1CCC[C@H]1c1ncc(-c2ccc3c(c2)OC(c2cccc(C)c2)n2c-3cc3cc(-c4cnc([C@@H]5CCCN5C(=O)[C@@H](NC(=O)OC)C(C)C)[nH]4)ccc32)[nH]1)C(C)C (mixture of isomers) | 2 |  | 12 |  |  | 0.52 |  | 
17 | COC(=O)N[C@H](C(=O)N1CCC[C@H]1c1ncc(-c2ccc3c(c2)OC(c2cccc(O)c2)n2c-3cc3cc(-c4cnc([C@@H]5CCCN5C(=O)[C@@H](NC(=O)OC)C(C)C)[nH]4)ccc32)[nH]1)C(C)C (mixture of isomers) | 3 | 0.02 | 0.8 | 0.02 | 0.02 |  |  | 0.03
18 | COC(=O)N[C@H](C(=O)N1CCC[C@H]1c1ncc(-c2ccc3c(c2)OC(c2ccncc2)n2c-3cc3cc(-c4cnc([C@@H]5CCCN5C(=O)[C@@H](NC(=O)OC)C(C)C)[nH]4)ccc32)[nH]1)C(C)C (mixture of isomers) |  | 0.2 | 146 | 0.01 | 0.8 | 0.6 | 0.01 | 0.02
19 | COC(=O)N[C@H](C(=O)N1CCC[C@H]1c1ncc(-c2ccc3c(c2)OC(c2cc(F)ccc2OC)n2c-3cc3cc(-c4cnc([C@@H]5CCCN5C(=O)[C@@H](NC(=O)OC)C(C)C)[nH]4)ccc32)[nH]1)C(C)C (stereo not given in full) | 1 |  | 48 | 0.02 |  | 1 | 0.01 | 
20 | COC(=O)N[C@H](C(=O)N1CCC[C@H]1c1ncc(-c2ccc3c(c2)OC(c2ccc(F)cc2)n2c-3cc3cc(-c4cnc([C@@H]5CCCN5C(=O)[C@@H](NC(=O)OC)C(C)C)[nH]4)ccc32)[nH]1)C(C)C (stereo not given in full) | 2 | 0.01 | 5 | 0.003 | 0.06 |  | 0.006 | 0.002
21 | COC(=O)N[C@H](C(=O)N1CCC[C@H]1c1ncc(-c2ccc3c(c2)OC(c2cc(F)cc(OC)c2)n2c-3cc3cc(-c4cnc([C@@H]5CCCN5C(=O)[C@@H](NC(=O)OC)C(C)C)[nH]4)ccc32)[nH]1)C(C)C (mixture of isomers) | 0.1 |  | 2.3 | 0.006 |  | 0.1 | 0.007 | 
22 | CCCOc1cccc(C2Oc3cc(-c4cnc([C@@H]5CCCN5C(=O)[C@@H](NC(=O)OC)C(C)C)[nH]4)ccc3-c3cc4cc(-c5cnc([C@@H]6CCCN6C(=O)[C@@H](NC(=O)OC)C(C)C)[nH]5)ccc4n32)c1 (stereo not given in full) | 2 |  | 2.6 | 0.01 | 0.08 | 0.3 |  | 
23 | COC(=O)N[C@H](C(=O)N1CCC[C@H]1c1ncc(-c2ccc3c(c2)OC(c2cccc(C#N)c2)n2c-3cc3cc(-c4cnc([C@@H]5CCCN5C(=O)[C@@H](NC(=O)OC)C(C)C)[nH]4)ccc32)[nH]1)C(C)C (mixture of isomers) | < 2 | < 2 | 4 | < 2 | < 2 |  | < 0.2 | < 2
24 | COC(=O)N[C@H](C(=O)N1CCC[C@H]1c1ncc(-c2ccc3c(c2)OC(c2ccc(C)cc2)n2c-3cc3cc(-c4cnc([C@@H]5CCCN5C(=O)[C@@H](NC(=O)OC)C(C)C)[nH]4)ccc32)[nH]1)C(C)C (stereo not given in full) |  | 0.7 | 5 | 0.01 | 0.5 | 4 | 0.006 | 0.01
